How the values were obtained:
MCF7 = assay: MTT assay, MCF7; assay type: cell-based, human
MCF7 cells = assay: γH2AX foci immunofluorescence, MCF7; assay type: cell-based, human; conditions: MCF7, 24 h
Protocol: Cells are processed after about 24 h of treatment. In all panels, DMSO treated cells are used as control. Control and treated cells are fixed, permeabilized, blocked and incubated with anti-γH2AX primary antibody followed by incubation with appropriate biotinylated secondary antibody and strep-FITC. Propidium iodide is used as nuclear marker. Cells treated with secondary antibody alone served as negative control. Images are captured by Olympus DSU microscope. […] HeLa cells (about 2×10^5 cells/ml) are seeded and grown in serum free media for about 6 h. […] DMSO treated cells are used as control.
DMSO treated cells are used as control. DAPI is nuclear marker. Images are captured by Zeiss Confocal laser scanning microscope. B. Detection of DSBs by γH2AX foci formation in MCF7 cells following treatment with siRNA against Ligase I, Ligase III and Ligase IV. Scrambled siRNA is used as the control. […] Data shown are from three independent experiments and in each case, foci from a minimum of about 50 cells are counted. […] The relative length and intensity of propidium iodide stained DNA tails to heads is proportional to the amount of DNA damage present in individual nuclei. […] DMSO treated cells serve as vehicle control. In panels A, D, E and G, significance levels are indicated (ns: not significant, *p<0.05, **p<0.01, ***p<0.001).

A2780 = assay: MTT assay, A2780; assay type: cell-based; conditions: Homo sapiens
A549 = assay: MTT assay, A549; assay type: cell-based; conditions: Homo sapiens
Ligase IV/XRCC4 complex = target: T1, Ligase IV/XRCC4 complex (Homo sapiens, UniProt P49917); assay: DSB joining catalysed by purified Ligase IV/XRCC4 complex; assay type: biochemical; conditions: equimolar concentration of protein
T1 construct: made in house
T1 sequence (P49917 whole entry): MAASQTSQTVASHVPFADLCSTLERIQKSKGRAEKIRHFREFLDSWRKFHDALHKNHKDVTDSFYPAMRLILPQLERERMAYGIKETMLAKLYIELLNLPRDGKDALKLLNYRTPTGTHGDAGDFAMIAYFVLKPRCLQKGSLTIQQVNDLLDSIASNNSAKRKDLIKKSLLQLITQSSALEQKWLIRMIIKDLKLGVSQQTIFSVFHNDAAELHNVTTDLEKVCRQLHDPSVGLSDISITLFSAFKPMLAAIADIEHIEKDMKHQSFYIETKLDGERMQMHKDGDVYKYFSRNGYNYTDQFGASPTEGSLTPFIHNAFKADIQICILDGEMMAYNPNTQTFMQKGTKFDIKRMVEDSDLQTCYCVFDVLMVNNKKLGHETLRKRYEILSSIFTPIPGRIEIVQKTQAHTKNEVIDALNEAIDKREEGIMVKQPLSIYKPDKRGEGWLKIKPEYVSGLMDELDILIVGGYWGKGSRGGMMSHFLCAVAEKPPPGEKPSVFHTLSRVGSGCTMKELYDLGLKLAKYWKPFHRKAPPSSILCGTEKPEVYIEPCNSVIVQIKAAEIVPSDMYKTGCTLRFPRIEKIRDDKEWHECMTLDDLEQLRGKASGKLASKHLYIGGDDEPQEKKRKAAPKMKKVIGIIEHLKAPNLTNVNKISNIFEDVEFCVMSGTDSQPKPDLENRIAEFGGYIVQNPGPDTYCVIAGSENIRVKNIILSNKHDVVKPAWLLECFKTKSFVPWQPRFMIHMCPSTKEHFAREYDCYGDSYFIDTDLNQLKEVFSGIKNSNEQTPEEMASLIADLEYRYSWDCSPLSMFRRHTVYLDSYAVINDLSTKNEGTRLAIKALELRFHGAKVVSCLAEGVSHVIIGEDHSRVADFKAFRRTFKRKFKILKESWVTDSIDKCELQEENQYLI
T1 sequence (Q13426 whole entry partner): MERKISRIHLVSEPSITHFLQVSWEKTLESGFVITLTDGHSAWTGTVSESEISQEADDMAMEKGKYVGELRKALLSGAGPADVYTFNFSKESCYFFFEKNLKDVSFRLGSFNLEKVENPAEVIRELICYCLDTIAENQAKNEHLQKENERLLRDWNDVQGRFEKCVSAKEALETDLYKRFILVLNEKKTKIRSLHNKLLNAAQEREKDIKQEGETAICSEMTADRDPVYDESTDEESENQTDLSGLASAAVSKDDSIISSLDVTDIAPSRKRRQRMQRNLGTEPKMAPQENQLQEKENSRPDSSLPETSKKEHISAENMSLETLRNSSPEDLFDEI
Protocol: (§1) A. Western blotting showing presence of Ligase IV/XRCC4 in eluted fractions. W is wash, 1 and 2 are different fractions. […] Concentrations of inhibitors used are indicated. For other details, FIG. 4 legend can be referred. C. […] Radiolabeled oligomeric DNA substrates containing 5′ compatible termini are then added to the reaction along with increasing concentrations of purified Ligase IV/XRCC4 complex (30, 60 and 120 fmol) and products are resolved on a PAGE. F. Bar diagram representing quantification of the complementation experiment performed on 5′-5′ and 5′-3′ noncomplementary ends. In all panels quantification of EJ based on 3 independent experiments is represented as mean±SEM.

HeLa cells = assay: γH2AX foci immunofluorescence, HeLa; assay type: cell-based, human
K562 = assay: MTT assay, K562; assay type: cell-based; conditions: Homo sapiens
HeLa = assay: MTT assay, HeLa; assay type: cell-based, human
[1] = target: T2, DNA binding domain (DBD) of Ligase IV (Homo sapiens, UniProt P49917); assay: CD spectroscopy, DBD of Ligase IV; conditions: 200-260 nm
T2 construct: Ligase IV or DBD of Ligase IV alone is overexpressed, purified; made in house
T2 sequence (P49917 1-251 limits assumed): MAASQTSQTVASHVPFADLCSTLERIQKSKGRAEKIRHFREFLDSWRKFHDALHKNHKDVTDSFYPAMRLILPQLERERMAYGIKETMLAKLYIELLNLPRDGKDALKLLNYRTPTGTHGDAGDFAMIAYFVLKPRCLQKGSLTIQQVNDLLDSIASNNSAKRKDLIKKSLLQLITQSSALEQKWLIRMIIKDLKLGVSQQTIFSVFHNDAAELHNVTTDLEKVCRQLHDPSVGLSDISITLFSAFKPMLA
Protocol: A. Western blot analysis of KU70 and KU80 proteins in purified fractions. W is wash, 1, 2 and 3 are different fractions. B. Binding of KU proteins to DNA breaks. [−γ^32P]ATP end-labeled oligomeric DNA substrate containing DSB is incubated for about 30 min on ice with purified KU or Ligase IV/XRCC4 complex. For Ligase IV/XRCC4 supershift, first KU and DNA are incubated followed by addition of Ligase IV/XRCC4 (about 60 fmol). Reaction mixture is resolved on 1-6% native gradient PAGE. C. […] After preincubation of KU with DNA substrates, Ligase IV/XRCC4 complex (about 60 fmol) and increasing concentrations of inhibitor (10, 50, 100, 200, 500 and 700µM) are added, incubated and products are resolved on a gradient native PAGE. D-1 and D-2. […] CD spectra are obtained at a wavelength of 200-260 nm for […]

Dalton's lymphoma = Dalton's lymphoma (DLA) mouse model; assay type: in vivo, mice
Source text: Data shown is from three independent batches of experiments containing 8 animals each. […] B-1 and B-2. […] Data shown is from two independent batches of experiments containing 10 animals each. […] C.
Data shown is from two independent batches of experiments containing 5 animals each. […] C. […] DMSO treated cells are used as vehicle control. γH2AX foci formation is detected as described in FIG. 10. […] Data shown are from three independent experiments and in each case foci from a minimum of about 50 cells are counted. In panels A, B, C, D, E, significance levels are indicated (ns: not significant, *p<0.05, **p<0.01, ***p<0.001).

[2] = Solubility (characterisation data)
DNA end joining (NHEJ) = assay: NHEJ assay, cell-free extracts prepared from rat testes; assay type: biochemical
Protocol: ATP end-labeled oligomeric DNA substrate (75 bp) containing 4 nt overhangs at 5′ ends (about 2 h at 25° C.). In the case of vehicle control, DMSO is used. […] The reaction products are purified and resolved on about 8% denaturing polyacrylamide gel.
FIG. 2 depicts the NHEJ assay and study of joining efficiency. A. Schematic representation of NHEJ assay and substrates containing DSBs. B. Comparison of the effect of potential Ligase IV inhibitors on DNA end joining. The joined products are indicated. “M” represents [g-32 ? P] ATP end-labeled 50 by ladder. C. Quantification of the joining efficiency. […] “PSLU” is “photostimulated luminescence unit”. […] Products are resolved on 1% agarose gel and visualized. Ethidium bromide is used as a positive control for the intercalation assay.
The reaction products are resolved on 8% denaturing PAGE. “M” represents [γ-^32P]ATP end-labeled 50 by ladder. […] “M” is a 2 log DNA ladder.
as §1

IC50 (A2780): ~15 µM
IC50 (A549): ~35 µM
Joining by purified Ligase IV (Ligase IV/XRCC4 complex): blocks joining
IC50 (K562): > 100 µM
CD spectrum of DBD upon addition of compound [1]: clear shift in the spectrum
Solubility in dimethyl formamide (DMF), dimethyl sulfoxide (DMSO) ([2]; DMF, DMSO): soluble
Solubility in chloroform (CHCl3) ([2]; chloroform): Insoluble
Solubility in ethanol ([2]; ethanol): Partially soluble
Structure (SMILES): Oc1nc(S)nc(/N=C/c2ccccc2)c1/N=C/c1ccccc1 [Compound 1, (5E,6E)-5,6-bis(benzylideneamino)-2-mercaptopyrimidin-4-ol]
Effect on cell proliferation (MTT) (MCF7): dose-dependent effect on cell proliferation
γH2AX foci (MCF7 cells): increase in γH2AX foci in a concentration-dependent manner
γH2AX foci (HeLa cells): increase in γH2AX foci in a concentration-dependent manner
Effect on cell proliferation (MTT) (HeLa): dose-dependent effect on cell proliferation
Tumor growth, together with etoposide (Dalton's lymphoma; 20 mg/kg + etoposide 10 mg/kg intraperitoneally): substantial reduction in tumor growth
Tumor growth, in conjunction with radiation (Dalton's lymphoma; about 20 mg/kg intraperitoneally + irradiation 2 Gy, 2 doses, 7 and 14 days): significant decrease in tumor growth
Lifespan (Dalton's lymphoma; about 20 mg/kg, 6 doses, Compound 1 alone): nor increase in lifespan
End joining in testicular extracts (DNA end joining (NHEJ); Compound 1 about 150 μM added to testicular extracts): abrogates end joining
Complementation by purified Ligase IV/XRCC4 of inhibited end joining (DNA end joining (NHEJ); Compound 1 about 150 μM, Ligase IV/XRCC4 30, 60, 120 fmol added): restores joining for all the ends
Inhibition of end joining (EJ) of various types of DSBs (DNA end joining (NHEJ); cell-free repair system from rat testes, compatible, noncompatible, blunt ends): inhibits end joining (EJ) irrespective of type and configurations of DSB
Inhibition of DNA end joining (joining efficiency) (DNA end joining (NHEJ); rat testes extracts about 0.5 μg, inhibitors about 150 μM, 75 bp oligomeric DNA with 4 nt 5' overhangs): most potent inhibitor

— patent publication US9969696B2, “Compounds as inhibitor of DNA double-strand break repair, methods and applications thereof” (INDIAN INSTITUTE OF SCIENCE, priority 2012, dated 2018)
